Test results as given in US9315458B2, “Nitrogen-containing heterocyclic compound” (Takeda Pharmaceutical Company Limited, priority 2014, dated 2016).

Molecular target: T1, human M1 receptor (hCHRM1) (Homo sapiens, UniProt P11229)
T1 construct: expressed in transfected cells
T1 sequence (P11229 1-460): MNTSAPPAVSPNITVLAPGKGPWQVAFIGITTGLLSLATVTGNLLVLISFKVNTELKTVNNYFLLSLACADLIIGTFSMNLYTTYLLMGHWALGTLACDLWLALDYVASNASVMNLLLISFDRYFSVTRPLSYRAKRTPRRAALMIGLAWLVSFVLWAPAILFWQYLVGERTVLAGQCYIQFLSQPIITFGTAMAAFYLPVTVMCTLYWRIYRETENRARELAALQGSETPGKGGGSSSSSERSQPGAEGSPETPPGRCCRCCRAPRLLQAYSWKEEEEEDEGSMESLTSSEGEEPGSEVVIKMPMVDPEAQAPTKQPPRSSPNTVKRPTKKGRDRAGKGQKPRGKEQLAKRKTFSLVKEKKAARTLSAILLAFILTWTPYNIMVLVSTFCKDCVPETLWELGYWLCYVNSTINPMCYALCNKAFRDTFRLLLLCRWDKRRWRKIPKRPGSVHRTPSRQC
Assay: Measurement of M1 receptor positive allosteric modulator (M1PAM) activity, calcium fluorescence (FLIPRtetra) with acetylcholine at EC20
Type: cell-based
Settings: for activity (%) at 10 μM: 10 μM test compound, 100% = acetylcholine 1 μM, 0% = DMSO, acetylcholine at EC20; for EC50: inflection point of concentration-dependent curve, CHO-K1 cells expressing hCHRM1, acetylcholine at EC20 (final 0.6-0.8 nM), read-out: IP value
How it was run: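 CHO-K1 cells stably expressing hCHRM1, Fluo-4 AM loaded; compound added with acetylcholine at EC20 (final 0.6-0.8 nM), fluorescence read 1 min. Activity normalised to 1 μM acetylcholine (100%) and DMSO (0%); IP values taken as inflection point of the concentration-response curve.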

| activity (%) at 10 μM | EC50 | SMILES |
| --- | --- | --- |
| 87% | 35 nM | Cc1cc2c(cc1Cc1ccc(-n3cccn3)cc1)C(=O)N(C(C)C(C)(C)O)C2 (centres unmarked) [Example 133, 2-(3-hydroxy-3-methylbutan-2-yl)-5-methyl-6-(4-(1H-pyrazol-1-yl)benzyl)isoindolin-1-one] |
| 100% | 75 nM | Cc1c(Cc2ccc(-n3cccn3)nc2)cc2c(c1C)CN(C[C@@H]1CCCO1)C2=O [Example 136, 4,5-dimethyl-6-((6-(1H-pyrazol-1-yl)pyridin-3-yl)methyl)-2-((2S)-tetrahydrofuran-2-ylmethyl)isoindolin-1-one] |
| 106% | 25 nM | CNC(=O)c1ccc(Cc2cc3c(c(C)c2C)CN(CC(C)(C)O)C3=O)cc1F [Example 138, 2-fluoro-4-((2-(2-hydroxy-2-methylpropyl)-6,7-dimethyl-3-oxo-2,3-dihydro-1H-isoindol-5-yl)methyl)-N-methylbenzamide] |
| 102% | 14 nM | CNC(=O)c1ccc(Cc2cc3c(c(C)c2C)CN(C[C@@H]2CCCO2)C3=O)cc1F [Example 139, 4-((6,7-dimethyl-3-oxo-2-((2S)-tetrahydrofuran-2-ylmethyl)-2,3-dihydro-1H-isoindol-5-yl)methyl)-2-fluoro-N-methylbenzamide] |
| 93% | 2 nM | Cc1c(Cc2ccc(-c3ccn(C)n3)cc2)cc2c(c1F)CN([C@H]1COCC[C@@H]1O)C2=O [Example 140, 4-fluoro-2-[(3S,4S)-4-hydroxytetrahydro-2H-pyran-3-yl]-5-methyl-6-[4-(1-methyl-1H-pyrazol-3-yl)benzyl]-2,3-dihydro-1H-isoindol-1-one] |
| 106% | 18 nM | COc1ccc(Cc2cc3c(c(C)c2C)CN([C@H]2CCCC[C@@H]2O)C3=O)cc1 [Example 141, 2-((1S,2S)-2-hydroxycyclohexyl)-6-(4-methoxybenzyl)-4,5-dimethylisoindolin-1-one] |
| 106% | 31 nM | CCOc1ccc(Cc2cc3c(c(C)c2C)CN([C@H]2COCC[C@@H]2O)C3=O)cc1 [Example 142, 6-(4-ethoxybenzyl)-2-[(3S,4S)-4-hydroxytetrahydro-2H-pyran-3-yl]-4,5-dimethyl-2,3-dihydro-1H-isoinol-1-one] |
| 97% | 23 nM | CCc1cc2c(cc1Cc1ccc(-n3cccn3)cc1F)C(=O)N([C@H]1COCC[C@@H]1O)C2 [Example 144, 5-ethyl-6-[2-fluoro-4-(1H-pyrazol-1-yl)benzyl]-2-[(3S,4S)-4-hydroxytetrahydro-2H-pyran-3-yl]-2,3-dihydro-1H-isoindol-1-one] |
| 89% | 63 nM | CCc1cc2c(cc1Cc1ccc(OC)cc1)C(=O)N([C@H]1COCC[C@@H]1O)C2 [Example 148, 5-ethyl-2-[(3S,4S)-4-hydroxytetrahydro-2H-pyran-3-yl]-6-(4-methoxybenzyl)-2,3-dihydro-1H-isoindol-1-one] |
| 99% | 16 nM | CCc1ccc(Cc2cc3c(c(C)c2C)CN([C@H]2CCCC[C@@H]2O)C3=O)cn1 [Example 149, 6-((6-ethylpyridin-3-yl)methyl)-2-((1S,2S)-2-hydroxycyclohexyl)-4,5-dimethylisoindolin-1-one] |
| 89% | 14 nM | COc1ccc(Cc2cc3c(c(F)c2C)CN([C@H]2COCC[C@@H]2O)C3=O)cc1 [Example 150, 4-fluoro-2-[(3S,4S)-4-hydroxytetrahydro-2H-pyran-3-yl]-6-(4-methoxybenzyl)-5-methyl-2,3-dihydro-1H-isoindol-1-one] |
| 92% | 16 nM | COc1ccc(Cc2cc3c(c(Cl)c2C)CN([C@H]2CCCC[C@@H]2O)C3=O)cc1 [Example 151, 4-chloro-2-((1S,2S)-2-hydroxycyclohexyl)-6-(4-methoxybenzyl)-5-methylisoindolin-1-one] |
| 91% | 47 nM | COc1ccc(Cc2cc3c(c(Cl)c2C)CN([C@H]2CCC[C@@H]2O)C3=O)cc1 [Example 152, 4-chloro-2-((1S,2S)-2-hydroxycyclopentyl)-6-(4-methoxybenzyl)-5-methylisoindolin-1-one] |
| 92% | 57 nM | Cc1c(Cc2ccc(-n3cccn3)cc2)cc2c(c1C)CN(c1ncccc1F)C2=O [Example 153, 2-(3-fluoropyridin-2-yl)-4,5-dimethyl-6-(4-(1H-pyrazol-1-yl)benzyl)isoindolin-1-one] |
| 100% | 22 nM | COc1ccc(Cc2cc3c(c(F)c2C)CN([C@H]2CCCC[C@@H]2O)C3=O)cc1 [Example 154, 4-fluoro-2-((1S,2S)-2-hydroxycyclohexyl)-6-(4-methoxybenzyl)-5-methylisoindolin-1-one] |
| 100% | 7.1 nM | Cc1c(Cc2ccc(C#N)cc2)cc2c(c1C)CN([C@H]1CCCC[C@@H]1O)C2=O [Example 155, 4-((2-((1S,2S)-2-hydroxycyclohexyl)-6,7-dimethyl-3-oxo-2,3-dihydro-1H-isoindol-5-yl)methyl)benzonitrile] |
| 80% | 4.3 nM | Cc1c(Cc2ccc(C#N)cc2)cc2c(c1C)CN([C@H]1COCC[C@@H]1O)C2=O [Example 156, 4-({2-[(3S,4S)-4-hydroxytetrahydro-2H-pyran-3-yl]-6,7-dimethyl-3-oxo-2,3-dihydro-1H-isoindol-5-yl}methyl)benzonitrile] |
| 97% | 84 nM | COc1ccc(Cc2cc3c(c(F)c2OC)CN([C@H]2COCC[C@@H]2O)C3=O)cc1 [Example 157] |
| 111% | 28 nM | COc1ccc(Cc2cc3c(c(C)c2C)CN([C@H]2COCC[C@@H]2O)C3=O)cc1F [Example 158, 6-(3-fluoro-4-methoxybenzyl)-2-[(3S,4S)-4-hydroxytetrahydro-2H-pyran-3-yl]-4,5-dimethyl-2,3-dihydro-1H-isoindol-1-one] |
| 112% | 47 nM | COc1ccc(Cc2cc3c(c(C)c2C)CN([C@H]2COCC[C@@H]2O)C3=O)cc1C [Example 160, 2-[(3S,4S)-4-hydroxytetrahydro-2H-pyran-3-yl]-6-(4-methoxy-3-methylbenzyl)-4,5-dimethyl-2,3-dihydro-1H-isoindol-1-one] |
| 94% | 32 nM | COc1ccc(Cc2cc3c(c(F)c2OC)CN([C@H]2CCCC[C@@H]2O)C3=O)cc1 [Example 161, 4-fluoro-2-((1S,2S)-2-hydroxycyclohexyl)-5-methoxy-6-(4-methoxybenzyl)isoindol-1-one] |
| 95% | 66 nM | Cc1c(Cc2ccc(-n3cccn3)cc2)cc2c(c1C)CN(c1ncc(Cl)cc1F)C2=O [Example 162, 2-(5-chloro-3-fluoropyridin-2-yl)-4,5-dimethyl-6-(4-(1H-pyrazol-1-yl)benzyl)isoindolin-1-one] |
| 108% | 51 nM | COc1ccc(Cc2cc3c(c(C)c2C)CN([C@H]2COCC[C@@H]2O)C3=O)c(F)c1 [Example 163, 6-(2-fluoro-4-methoxybenzyl)-2-[(3S,4S)-4-hydroxytetrahydro-2H-pyran-3-yl]-4,5-dimethyl-2,3-dihydro-1H-isoindol-1-one] |
| 102% | 62 nM | COc1ccc(Cc2cc3c(cc2C)CN([C@H]2COCC[C@@H]2O)C3=O)cc1 [Example 164, 2-[(3S,4S)-4-hydroxytetrahydro-2H-pyran-3-yl]-6-(4-methoxybenzyl)-5-methyl-2,3-dihydro-1H-isoindol-1-one] |
| 95% | 30 nM | COc1ccc(Cc2cc3c(cc2C)CN([C@H]2CCCC[C@@H]2O)C3=O)cc1 [Example 167, 2-((1S,2S)-2-hydroxycyclohexyl)-6-(4-methoxybenzyl)-5-methylisoindolin-1-one] |
